Assay results as given in US10059669B2, “2-amino-3,5-difluoro-3,6-dimethyl-6-phenyl-3,4,5,6-tetrahydropyridines as BACE1 inhibitors for treating alzheimer's disease” (H. Lundbeck A/S, priority 2014, dated 2018).
Where two headings read alike, the source gives them in different places.

Experiments:
P-gp (MDR1) = experiment: MDCK-MDR1 assay (permeability, efflux ratio); type: in vitro ADME; details: dog, Papp BA/Papp AB, 60-minute incubation, Pgp substrate when ≥2
Procedure: The permeability of the test compounds was assessed in MDCK-MDR1 cells that were cultured to confluency (4-6 days) in a 96 transwell plate. Test compounds were diluted with the transport buffer (HBSS+1% BSA) to a concentration of 0.5 μM and applied to the apical or basolateral side of the cell monolayer. Permeation of the test compounds from A to B direction or B to A direction was determined in triplicate over a 60-minute incubation time at 37° C. and 5% CO2 with a relative humidity of 95%. Test compounds were quantified by LC-MS/MS analysis based on the peaks area ratios of analyte/IS in both the receiver and donor wells of the transwell plate.
The apparent permeability coefficient Papp (cm/s) was calculated using the equation: Papp=(dCr/dt)×Vr/(A×C0)
Where dCr/dt is the cumulative concentration of compound in the receiver chamber as a function of time (M/s); Vr is the solution volume in the receiver chamber (0.05 mL on the apical side; 0.25 mL on the basolateral side); A is the surface area for the transport, i.e. 0.0804 cm^2 for the area of the monolayer; C0 is the initial concentration in the donor chamber (VIM).
Compounds are classified Pgp substrates when efflux ratio (Papp BA/Papp AB) is ≥2.

BACE1 = BACE1 (Homo sapiens (Human), UniProt P56817); experiment: BACE1 efficacy assay (FRET-based, commercial BACE1 kit); type: biochemical; details: 10 μM test compound
Procedure: The efficacy assay was performed as a FRET-based assay using a commercially available BACE1 kit (Life Technologies, P2985). 2 μl test compound at 10 μM (final concentration) and 15 μl BACE1 enzyme from the kit (final concentration 3 nM) were preincubated for 15 minutes at room temperature before addition of 15 μl of substrate from the kit (250 nM final concentration) and incubated for additional 90 minutes at room temperature. The assay plate was subsequently read in a Pherastar (Ex540/Em590). The enzyme activity observed in presence of test compound were normalized to the enzyme activity observed in presence of buffer and 10 μM (final concentration) of the high affinity BACE1 reference inhibitor (S)-6-[3-Chloro-5-(5-prop-1-ynyl-pyridin-3-yl)-thiophen-2-yl]-2-imino-3,6-dimethyl-tetra-hydropyrimidin-4-one, respectively. The efficacy of the test compounds was evaluated at 10 μM (final concentration) and defined as the percent inhibition of the enzyme activity using the equation % inhibition=100%−normalized enzyme activity in percent.

[1] = Bioanalysis of brain and plasma samples (exposure, UPLC-MS/MS); type: in vivo, rat; details: male, Sprague Dawley, po, 3 hours post dose; for Kp at 3 h: brain and plasma, Rat, read-out: Brain/Plasma ratio; for concentration at 3 h: read-out: Exp
Procedure: Young adult Male Sprague Dawley rats of approximately 250 g weight were purchased from Charles River and received 0-30 mg/kg of vehicle (10% HP betaCD+1M MeSO4, pH 2.5) or test compounds (dissolved in vehicle) only by oral gavage (p.o). The compounds are dosed at a volume of 5 ml/kg. Cohorts of 5-10 animals were established for each treatment condition.
At T=180 minutes after initial dosing the animals were stunned and decapitated with a guillotine. Trunk-blood was sampled in EDTA coated tubes after decapitation of the animal. The blood was centrifuged at 2200G at 4° C. for 15 minutes and the plasma was collected and frozen at −80° C. The blood was aliquoted for Aβ ELISA and DMPK analysis. Immediately following sacrifice, the brain was extracted and split into 2 halves. The right hemibrains were snap frozen on dry ice and stored at −80° C. The left half was dissected; with the front forebrain taken for Aβ ELISA and the remainder used for DMPK analysis. These samples were also snap frozen on dry ice and stored at −80° C. until use for analysis. […]
TC was determined in plasma and brain homogenate using UltraPerformance LC® (UPLC®) chromatography followed by tandem-MS (MS/MS) detection.
Brain homogenate was prepared by homogenizing the brain 1:4 (v/v) with water:2-propanol:DMSO (50:30:20 v/v/v) followed by centrifugation and collection of the supernatant. Calibration standards and QC samples were prepared using a Hamilton robot. 150 μL of ISTD in acetonitrile (1 ng/mL ISTD) was added to 25 μL of calibration standards, QC samples and test samples (plasma and brain homogenate) using a Biomek robot. After centrifugation (6200 g, 4° C., 20 min) 100 μL supernatant from each sample was transferred to a new plate and mixed with 100 μL water with 0.1% formic acid using a Biomek robot (method file InVivo transfer). After a quick centrifugation (6200 g, 4° C., 5 min) the samples were placed in the auto-sampler.
MS/MS detection was done with an Applied Biosystems Sciex API 4000 instrument in positive-ion electrospray ionisation mode. TC and ISTD were detected at a parent>daughter mass to charge ratio (m/z). Nitrogen was used for the nebulizer and collision gases. The peak area correlated linearly with the plasma and brain concentration of the analytes in the range of 1.00-1000 ng/mL plasma and 5.00-5000 ng/g brain (corrected for dilution). If the plasma/brain sample drug concentration was above 1000 ng/mL or 5000 ng/g, the sample was diluted appropriately in blank plasma/blank brain homogenate before analysis.

Chain of BACE1 (P56817 46-501): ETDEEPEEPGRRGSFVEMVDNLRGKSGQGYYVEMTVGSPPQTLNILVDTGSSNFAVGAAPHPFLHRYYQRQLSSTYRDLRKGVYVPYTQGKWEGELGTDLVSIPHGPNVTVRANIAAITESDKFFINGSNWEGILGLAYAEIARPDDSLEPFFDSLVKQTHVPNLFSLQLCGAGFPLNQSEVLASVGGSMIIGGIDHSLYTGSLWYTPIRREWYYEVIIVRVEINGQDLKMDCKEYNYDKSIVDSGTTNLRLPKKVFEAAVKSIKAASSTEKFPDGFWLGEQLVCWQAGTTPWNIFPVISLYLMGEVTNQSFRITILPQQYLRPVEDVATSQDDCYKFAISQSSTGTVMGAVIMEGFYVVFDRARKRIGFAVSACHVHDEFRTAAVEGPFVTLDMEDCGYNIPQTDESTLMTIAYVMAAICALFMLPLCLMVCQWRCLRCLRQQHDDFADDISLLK

| efflux ratio at 60 min, 0.5 μM (P-gp (MDR1)) | inhibition at 10 µM (BACE1) | Kp at 3 h ([1]; 10 mg/kg p.o.) | Kp at 3 h ([1]; 30 mg/kg p.o.) | concentration at 3 h ([1]; Brain Rat, 10 mg/kg p.o.) | concentration at 3 h ([1]; Brain Rat, 30 mg/kg p.o.) | concentration at 3 h ([1]; Plasma Rat, 10 mg/kg p.o.) | concentration at 3 h ([1]; Plasma Rat, 30 mg/kg p.o.) | Kp at 3 h ([1]; 3 mg/kg p.o.) | concentration at 3 h ([1]; Brain Rat, 3 mg/kg p.o.) | concentration at 3 h ([1]; Plasma Rat, 3 mg/kg p.o.) | Structure (SMILES) |
| --- | --- | --- | --- | --- | --- | --- | --- | --- | --- | --- | --- |
| 0.96 | 102% | 1.4 | 0.83 | 671 ng/g | 1510 ng/g | 489 ng/g | 1830 ng/g | – | – | – | COc1ccc(C(=O)Nc2ccc(F)c([C@@]3(C)N=C(N)[C@@](C)(F)C[C@@H]3F)c2)nc1 [Compound 3, N-(3-((2R,3S,5S)-6-amino-3,5-difluoro-2,5-dimethyl-2,3,4,5-tetrahydropyridin-2-yl)-4-fluorophenyl)-5-methoxypicolinamide] |
| 0.79 | 106% | 2.2 | 2.3 | 1020 ng/g | 2770 ng/g | 473 ng/g | 1200 ng/g | – | – | – | [2H]C([2H])([2H])Oc1ccc(C(=O)Nc2ccc(F)c([C@@]3(C)N=C(N)[C@@](C)(F)C[C@@H]3F)c2)nc1 [Compound 19, N-(3-((2R,3S,5S)-6-amino-3,5-difluoro-2,5-dimethyl-2,3,4,5-tetrahydropyridin-2-yl)-4-fluorophenyl)-5-(methoxy-d3)picolinamide] |
| 0.85 | 106% | – | – | – | – | – | – | 2.2 | 610 ng/g | 272 ng/g | [2H]C([2H])([2H])Oc1cnc(C(=O)Nc2ccc(F)c([C@@]3(C)N=C(N)[C@@](C)(F)C[C@@H]3F)c2)cn1 [Compound 20, N-(3-((2R,3S,5S)-6-amino-3,5-difluoro-2,5-dimethyl-2,3,4,5-tetrahydropyridin-2-yl)-4-fluorophenyl)-5-(methoxy-d3)pyrazine-2-carboxamide] |
